From ChEMBL document CHEMBL1201862, “PubChem BioAssay data set” (2004)
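A five-concentration, 48-hour dose response in 96-well plates underlies each endpoint, interpolated linearly between surrounding concentrations. GI50: concentration for 50% inhibition of growth.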 Calls of active or inactive are those of the source. No stated cut-off is given here; in the data, active = GI50 up to about 1.1 µM and inactive = higher.

Key:
Test in all cases: NCI-60 cell line screen, 48 h
A549 = test system: A549
HCT-116 = test system: HCT-116
Malme-3M = test system: Malme-3M
HOP-62 = test system: HOP-62
U-251 = test system: U-251
SNB-75 = test system: SNB-75
OVCAR-8 = test system: OVCAR-8
SF-268 = test system: SF-268
UACC-62 = test system: UACC-62
SK-MEL-28 = test system: SK-MEL-28
HOP-92 = test system: HOP-92
NCI-H23 = test system: NCI-H23
NCI-H522 = test system: NCI-H522
NCI-H226 = test system: NCI-H226
HL-60 = test system: HL-60
UACC-257 = test system: UACC-257

Compound	GI50 (A549)	GI50 (HCT-116)	GI50 (Malme-3M)	GI50 (HOP-62)	GI50 (U-251)	GI50 (SNB-75)	GI50 (OVCAR-8)	GI50 (SF-268)	GI50 (UACC-62)	GI50 (SK-MEL-28)	GI50 (HOP-92)	GI50 (NCI-H23)	GI50 (NCI-H522)	GI50 (NCI-H226)	GI50 (HL-60)	GI50 (UACC-257)
CCN(c1ccc(Br)cc1)c1c(Br)c(=O)nc2ccccn12	> 100 µM (inactive)	> 100 µM (inactive)	64.9 µM (inactive)	> 100 µM (inactive)	> 100 µM (inactive)	> 100 µM (inactive)	> 100 µM (inactive)	> 100 µM (inactive)	65 µM (inactive)	> 100 µM (inactive)	57.3 µM (inactive)	> 100 µM (inactive)	62.2 µM (inactive)	> 100 µM (inactive)	–	–
CN(C(=O)C12C3(C(=O)C(C)(C)C)C4C5(C#N)C3C1(C(=O)C(C)(C)C)C5C42C(=O)C(C)(C)C)C(C)(C)C (centres undefined)	> 50 µM (inactive)	24.2 µM (inactive)	> 50 µM (inactive)	> 50 µM (inactive)	> 50 µM (inactive)	8.95 µM (inactive)	> 50 µM (inactive)	32.5 µM (inactive)	48.8 µM (inactive)	> 50 µM (inactive)	30.8 µM (inactive)	40.6 µM (inactive)	14.5 µM (inactive)	> 50 µM (inactive)	16.1 µM (inactive)	19.6 µM (inactive)
CN(C)C(=S)/N=c1\sn(C)/c(=N\C(=S)N(C)C)n1C	82.8 µM (inactive)	> 100 µM (inactive)	19.5 µM (inactive)	> 100 µM (inactive)	85.3 µM (inactive)	> 100 µM (inactive)	> 100 µM (inactive)	> 100 µM (inactive)	32.2 µM (inactive)	> 100 µM (inactive)	> 100 µM (inactive)	30.8 µM (inactive)	29.4 µM (inactive)	> 100 µM (inactive)	25.1 µM (inactive)	> 100 µM (inactive)
CC[C@@H]1NC(C(=O)OC)Cc2c1[nH]c1ccccc21 (some centres undefined)	> 100 µM (inactive)	> 100 µM (inactive)	> 100 µM (inactive)	–	> 100 µM (inactive)	> 100 µM (inactive)	> 100 µM (inactive)	–	> 100 µM (inactive)	> 100 µM (inactive)	> 100 µM (inactive)	> 100 µM (inactive)	–	> 100 µM (inactive)	> 100 µM (inactive)	> 100 µM (inactive)
c1cc(-c2cn3c(n2)SCC3)ccn1	> 100 µM (inactive)	> 42.4 µM (inactive)	> 100 µM (inactive)	> 100 µM (inactive)	> 73.3 µM (inactive)	> 100 µM (inactive)	> 100 µM (inactive)	> 100 µM (inactive)	> 100 µM (inactive)	–	> 100 µM (inactive)	> 100 µM (inactive)	> 100 µM (inactive)	> 100 µM (inactive)	> 38.1 µM (inactive)	> 100 µM (inactive)
CC(/C=C/C(=O)c1sc(-n2nc(-c3ccccc3)cc2-c2ccccc2)nc1C)=C\c1ccccc1	38.8 µM (inactive)	62.5 µM (inactive)	35.8 µM (inactive)	> 10 µM (inactive)	65.2 µM (inactive)	2.02 µM (inactive)	17.5 µM (inactive)	72.9 µM (inactive)	40.5 µM (inactive)	> 10 µM (inactive)	8.69 µM (inactive)	8.3 µM (inactive)	19 µM (inactive)	> 10 µM (inactive)	36.3 µM (inactive)	47.1 µM (inactive)
O=C1C2CN(Cc3ccccc3)CC1CN(CC1CC1)C2	> 100 µM (inactive)	–	> 100 µM (inactive)	> 100 µM (inactive)	> 100 µM (inactive)	> 100 µM (inactive)	> 100 µM (inactive)	> 100 µM (inactive)	> 100 µM (inactive)	> 100 µM (inactive)	> 100 µM (inactive)	> 100 µM (inactive)	> 100 µM (inactive)	> 100 µM (inactive)	> 100 µM (inactive)	> 100 µM (inactive)
COc1ccc(/C=N/NS(=O)(=O)c2ccccc2)cc1	> 100 µM (inactive)	> 100 µM (inactive)	> 100 µM (inactive)	> 100 µM (inactive)	> 100 µM (inactive)	> 100 µM (inactive)	> 100 µM (inactive)	> 100 µM (inactive)	> 100 µM (inactive)	> 100 µM (inactive)	> 100 µM (inactive)	> 100 µM (inactive)	–	> 100 µM (inactive)	> 100 µM (inactive)	> 100 µM (inactive)
COC(=O)C(Cc1cc(OC)c(OC)c(OC)c1)(NC(=O)c1ccccc1)P(=O)(OC)OC (centres undefined)	> 100 µM (inactive)	> 100 µM (inactive)	–	> 100 µM (inactive)	> 100 µM (inactive)	> 100 µM (inactive)	> 100 µM (inactive)	> 100 µM (inactive)	> 100 µM (inactive)	> 100 µM (inactive)	> 100 µM (inactive)	> 100 µM (inactive)	> 100 µM (inactive)	> 100 µM (inactive)	> 100 µM (inactive)	> 100 µM (inactive)
C=C(CO)CC(O)c1ccccc1 (centres undefined)	> 100 µM (inactive)	> 100 µM (inactive)	–	> 100 µM (inactive)	> 100 µM (inactive)	> 100 µM (inactive)	> 100 µM (inactive)	> 100 µM (inactive)	> 100 µM (inactive)	> 100 µM (inactive)	> 100 µM (inactive)	> 100 µM (inactive)	> 100 µM (inactive)	> 100 µM (inactive)	> 100 µM (inactive)	–
CN(CCO)/N=N/c1n[nH]cc1C(N)=O	> 100 µM (inactive)	> 100 µM (inactive)	> 100 µM (inactive)	–	> 100 µM (inactive)	> 100 µM (inactive)	> 100 µM (inactive)	> 100 µM (inactive)	> 100 µM (inactive)	> 100 µM (inactive)	> 100 µM (inactive)	> 100 µM (inactive)	> 100 µM (inactive)	> 100 µM (inactive)	> 100 µM (inactive)	> 100 µM (inactive)
CC(=O)NC1C(O)CC(OCCCSCCN)(C(=O)O)OC1C(O)C(O)CO (centres undefined)	> 100 µM (inactive)	> 100 µM (inactive)	> 100 µM (inactive)	–	> 100 µM (inactive)	> 100 µM (inactive)	> 100 µM (inactive)	> 100 µM (inactive)	–	> 100 µM (inactive)	> 100 µM (inactive)	> 100 µM (inactive)	–	> 100 µM (inactive)	> 100 µM (inactive)	> 100 µM (inactive)
O=C(O)CCCNS(=O)(=O)c1ccc2ccccc2c1	> 100 µM (inactive)	–	> 100 µM (inactive)	–	> 100 µM (inactive)	> 100 µM (inactive)	> 100 µM (inactive)	> 100 µM (inactive)	> 100 µM (inactive)	> 100 µM (inactive)	97.7 µM (inactive)	> 100 µM (inactive)	> 100 µM (inactive)	> 100 µM (inactive)	> 100 µM (inactive)	> 100 µM (inactive)
Cc1nc(-n2nc(-c3ccccc3)cc2-c2ccccc2)sc1C(=O)CC(=O)C(=O)Nc1ccc(Cl)c(Cl)c1	> 100 µM (inactive)	64.6 µM (inactive)	> 100 µM (inactive)	> 100 µM (inactive)	78.2 µM (inactive)	55 µM (inactive)	> 100 µM (inactive)	48.5 µM (inactive)	45.8 µM (inactive)	–	–	43.1 µM (inactive)	32.6 µM (inactive)	> 100 µM (inactive)	> 100 µM (inactive)	44.5 µM (inactive)
O=C1C(c2ccccc2)=C(c2ccccc2)C(c2ccc(CCCCCCc3ccc(C4=C(c5ccccc5)C(=O)C(c5ccccc5)=C4c4ccccc4)cc3)cc2)=C1c1ccccc1	> 100 µM (inactive)	> 100 µM (inactive)	> 100 µM (inactive)	> 100 µM (inactive)	64.6 µM (inactive)	–	> 100 µM (inactive)	> 100 µM (inactive)	> 100 µM (inactive)	> 100 µM (inactive)	> 100 µM (inactive)	> 100 µM (inactive)	> 100 µM (inactive)	–	> 100 µM (inactive)	> 100 µM (inactive)
O=C1c2cc3c(cc2[C@@H]2NC4CCCC14O2)OCO3 (some centres undefined)	> 100 µM (inactive)	> 100 µM (inactive)	–	> 100 µM (inactive)	> 100 µM (inactive)	> 100 µM (inactive)	> 100 µM (inactive)	> 100 µM (inactive)	> 100 µM (inactive)	> 100 µM (inactive)	> 100 µM (inactive)	> 100 µM (inactive)	> 100 µM (inactive)	> 100 µM (inactive)	> 100 µM (inactive)	> 100 µM (inactive)
O=C(c1cc2c(C(F)(F)F)onc2c2ccccc12)C(F)(F)F	4.51 µM (inactive)	0.0452 µM (active)	–	2.44 µM (inactive)	0.371 µM (active)	1.16 µM (inactive)	1.78 µM (inactive)	2.75 µM (inactive)	2.98 µM (inactive)	3.44 µM (inactive)	1.58 µM (inactive)	0.929 µM (active)	1.78 µM (inactive)	3.01 µM (inactive)	0.984 µM (active)	5.61 µM (inactive)
CC(=O)OCCOCNC(=S)N/N=C/c1ccc([N+](=O)[O-])o1	63.5 µM (inactive)	40 µM (inactive)	94.8 µM (inactive)	> 100 µM (inactive)	83.9 µM (inactive)	> 100 µM (inactive)	77.3 µM (inactive)	29.5 µM (inactive)	18.5 µM (inactive)	98.4 µM (inactive)	–	26.7 µM (inactive)	64.4 µM (inactive)	98.4 µM (inactive)	11.6 µM (inactive)	34.4 µM (inactive)
